Results as given in patent publication US12187712B2, “Cardiac sarcomere inhibitors” (Cytokinetics, Inc., priority 2018, dated 2025).

target: T1, bovine cardiac myofibrils (Bos taurus, UniProt Q9BE39); assay: Skinned myofibril ATPase assay (PK/LDH-coupled), CDMF75; assay type: biochemical; conditions: inhibition of steady-state ATPase activity of bovine cardiac myofibrils at 75% Ca2+ activation (pCa75)
T1 construct: full-length cardiac myosin in the context of the native sarcomere, skinned myofibril assays were performed; from tissue; host or cells: bovine cardiac left ventricular tissue, detergent-skinned (Triton X-100) myofibrils
T1 sequence (Q9BE39 whole entry): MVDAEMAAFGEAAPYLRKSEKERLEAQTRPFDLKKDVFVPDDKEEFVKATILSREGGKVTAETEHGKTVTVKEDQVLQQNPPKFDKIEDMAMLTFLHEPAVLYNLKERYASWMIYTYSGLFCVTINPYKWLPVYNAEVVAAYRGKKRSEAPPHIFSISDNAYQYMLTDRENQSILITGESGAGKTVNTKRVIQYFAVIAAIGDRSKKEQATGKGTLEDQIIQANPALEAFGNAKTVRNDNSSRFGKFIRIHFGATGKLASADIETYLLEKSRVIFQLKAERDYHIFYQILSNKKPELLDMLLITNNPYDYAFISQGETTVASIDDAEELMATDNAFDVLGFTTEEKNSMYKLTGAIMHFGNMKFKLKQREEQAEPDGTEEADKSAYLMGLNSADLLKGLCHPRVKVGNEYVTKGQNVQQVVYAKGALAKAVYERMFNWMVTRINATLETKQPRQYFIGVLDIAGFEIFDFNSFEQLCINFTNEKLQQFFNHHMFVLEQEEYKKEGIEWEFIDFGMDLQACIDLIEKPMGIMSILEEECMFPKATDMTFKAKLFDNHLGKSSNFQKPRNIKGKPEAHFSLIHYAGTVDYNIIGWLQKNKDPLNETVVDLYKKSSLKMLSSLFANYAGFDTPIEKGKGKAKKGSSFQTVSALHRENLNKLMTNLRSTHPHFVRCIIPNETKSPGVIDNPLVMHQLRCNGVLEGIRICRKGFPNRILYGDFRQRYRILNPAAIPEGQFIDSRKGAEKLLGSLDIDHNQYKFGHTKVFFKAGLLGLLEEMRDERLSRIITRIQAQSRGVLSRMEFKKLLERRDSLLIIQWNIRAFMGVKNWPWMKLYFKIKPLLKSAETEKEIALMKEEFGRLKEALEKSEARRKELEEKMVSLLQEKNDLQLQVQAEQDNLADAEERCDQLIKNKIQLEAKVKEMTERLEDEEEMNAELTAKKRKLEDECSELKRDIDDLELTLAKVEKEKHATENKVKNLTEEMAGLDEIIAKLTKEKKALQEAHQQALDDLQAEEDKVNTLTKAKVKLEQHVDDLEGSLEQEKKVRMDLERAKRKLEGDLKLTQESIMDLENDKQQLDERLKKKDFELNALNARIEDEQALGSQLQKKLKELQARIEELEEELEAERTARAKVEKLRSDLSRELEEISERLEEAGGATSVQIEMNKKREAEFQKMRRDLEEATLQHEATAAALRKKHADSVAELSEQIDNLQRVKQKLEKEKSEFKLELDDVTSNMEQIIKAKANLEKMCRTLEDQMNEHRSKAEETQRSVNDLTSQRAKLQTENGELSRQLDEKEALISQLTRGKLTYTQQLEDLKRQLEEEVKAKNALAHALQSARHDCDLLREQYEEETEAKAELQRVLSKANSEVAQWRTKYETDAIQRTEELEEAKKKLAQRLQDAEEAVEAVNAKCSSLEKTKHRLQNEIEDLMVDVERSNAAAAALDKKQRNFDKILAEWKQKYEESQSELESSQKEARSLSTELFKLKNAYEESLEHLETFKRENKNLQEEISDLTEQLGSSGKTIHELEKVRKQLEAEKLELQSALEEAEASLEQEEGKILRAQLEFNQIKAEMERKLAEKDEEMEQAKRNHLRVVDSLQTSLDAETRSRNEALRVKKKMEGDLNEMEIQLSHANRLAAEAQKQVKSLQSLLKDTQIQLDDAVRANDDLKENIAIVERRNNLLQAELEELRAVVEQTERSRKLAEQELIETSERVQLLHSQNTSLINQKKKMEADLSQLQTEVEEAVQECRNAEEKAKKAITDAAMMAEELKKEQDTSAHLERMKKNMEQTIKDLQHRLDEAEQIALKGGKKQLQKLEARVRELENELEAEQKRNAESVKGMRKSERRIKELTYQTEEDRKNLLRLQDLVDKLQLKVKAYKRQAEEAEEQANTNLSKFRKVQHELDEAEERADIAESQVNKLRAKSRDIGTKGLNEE
T1 sequence (P85100 whole entry partner): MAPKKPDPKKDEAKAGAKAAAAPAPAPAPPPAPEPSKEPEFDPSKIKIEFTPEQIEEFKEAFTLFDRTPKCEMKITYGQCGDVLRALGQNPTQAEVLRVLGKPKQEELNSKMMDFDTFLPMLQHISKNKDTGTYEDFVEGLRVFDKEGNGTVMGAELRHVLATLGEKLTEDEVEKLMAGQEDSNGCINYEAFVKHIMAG
T1 sequence (Q3SZE5 whole entry partner): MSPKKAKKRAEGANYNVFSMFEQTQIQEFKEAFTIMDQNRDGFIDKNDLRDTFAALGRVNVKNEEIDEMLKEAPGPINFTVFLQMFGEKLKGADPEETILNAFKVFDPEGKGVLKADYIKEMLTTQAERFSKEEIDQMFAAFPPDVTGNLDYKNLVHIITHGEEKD
Protocol: To evaluate the effect of compounds on the ATPase activity of full-length cardiac myosin in the context of the native sarcomere, skinned myofibril assays were performed. Bovine cardiac myofibrils were obtained by homogenizing bovine cardiac left ventricular tissue in the presence of a detergent such as triton X-100. Such treatment removes membranes and a majority of the soluble cytoplasmic proteins but leaves intact the cardiac sarcomeric acto-myosin apparatus. Myofibril preparations retain the ability to hydrolyze ATP in an Ca^2+ regulated manner. ATPase activities of such myofibril preparations in the presence and absence of compounds were assayed at Ca^2+ concentrations activating to a defined fraction of the maximal rate (i.e., 25%, 75%). Small molecule agents were assessed for their ability to inhibit the steady-state ATPase activity of bovine cardiac myofibrils using pyruvate kinase and lactate dehydrogenase (PK/LDH)-coupled enzyme system. This assay regenerates myosin-produced ADP into ATP by oxidizing NADH, producing an absorbance change at 340 nm. Prior to testing small molecule agents, the bovine cardiac myofibrils were assessed for their calcium responsiveness and the calcium concentration that achieves either a 50% (pCa50) or 75% (pCa75) activation of the myofibril system was chosen as the final condition for assessing the inhibitory activity of the small molecule agents. All enzymatic activity was measured in a buffered solution containing 12 mM PIPES (piperazine-N,N′-bis(2-ethanesulfonic acid), 2 mM magnesium chloride at pH 6.8 (PM 12 buffer). Final assay conditions were 1 mg/mL of bovine cardiac myofibrils, 4 U/mL pyruvate kinase, 6 U/mL lactate dehydrogenase, 50 μM ATP, 0.1 mg/mL BSA (bovine serum albumin), 10 ppm antifoam, 1 mM DTT, 0.5 mM NADH, 1.5 mM PEP, 0.6 mM EGTA, and an amount of CaCl2 sufficient to achieve either 50% or 75% activation of the myofibril ATPase activity. Results for compounds tested are provided in Table A. Compounds tested were prepared in accordance with the synthetic procedures described herein.

In order of falling “CDMF75 IC15” value:
1. Cc1cnn(-c2ccc(CNc3cnccn3)cc2)c1 [Compound 29, N-(4-(4-methyl-1H-pyrazol-1-yl)benzyl)pyrazin-2-amine]  8.1 µM
2. Cc1nc(-c2ccc(CNC(=O)c3ccnc(N)c3)cc2)no1 [Compound 60, 2-amino-N-[[4-(5-methyl-1,2,4-oxadiazol-3-yl)phenyl]methyl]pyridine-4-carboxamide]  7.7 µM
3. Cc1cc(-c2ccc(CNc3ccn(C)n3)cc2)no1 [Compound 64, 1-methyl-N-(4-(5-methylisoxazol-3-yl)benzyl)-1H-pyrazol-3-amine]  7.7 µM
4. C[C@@H](Nc1cnccn1)c1ccc(-c2noc(C(C)(C)C)n2)cc1 [Compound 36, (R)-N-(1-(4-(5-(tert-butyl)-1,2,4-oxadiazol-3-yl)phenyl)ethyl)pyrazin-2-amine]  7.1 µM
5. Cc1cc(-c2ccc(CNc3cc[nH]n3)cc2)no1 [Compound 62, N-(4-(5-methylisoxazol-3-yl)benzyl)-1H-pyrazol-3-amine]  5.0 µM
6. Cc1cnc(-c2ccc(CNc3cnccn3)cc2)s1 [Compound 48, N-[[4-(5-methyl-1,3-thiazol-2-yl)phenyl]methyl]pyrazin-2-amine]  4.0 µM
7. CCc1cc(NCc2ccc(-c3noc(C)n3)cc2)ncn1 [Compound 8, 6-ethyl-N-(4-(5-methyl-1,2,4-oxadiazol-3-yl)benzyl)pyrimidin-4-amine]  3.1 µM
8. Cc1nc(-c2ccc(CNC(=O)OCc3ccccc3)cc2)no1 [Compound 57, benzyl (4-(5-methyl-1,2,4-oxadiazol-3-yl)benzyl)carbamate]  3.1 µM
9. Cc1cc(-c2ccc(CNc3cccc(=O)[nH]3)cc2)no1 [Compound 61, 6-([[4-(5-methyl-1,2-oxazol-3-yl)phenyl]methyl]amino)-1,2-dihydropyridin-2-one]  2.4 µM
10. Cc1nc(-c2ccc(C(C)Nc3cc(Cl)ncn3)cc2)no1 (stereo not drawn) [Compound 21, 6-chloro-N-(1-(4-(5-methyl-1,2,4-oxadiazol-3-yl)phenyl)ethyl)pyrimidin-4-amine]  2.2 µM
11. Cc1cc(NCc2ccc(-c3noc(C)n3)cc2)ncn1 [Compound 4, 6-methyl-N-(4-(5-methyl-1,2,4-oxadiazol-3-yl)benzyl)pyrimidin-4-amine]  1.9 µM
12. Cc1nc(-c2ccc(CNc3ccc(Cl)cn3)cc2)no1 [Compound 20, 5-chloro-N-(4-(5-methyl-1,2,4-oxadiazol-3-yl)benzyl)pyridin-2-amine]  1.5 µM
13. C[C@@H](Nc1cnccn1)c1ccc(-c2noc(-c3ccccc3)n2)cc1 [Compound 37, (R)-N-(1-(4-(5-phenyl-1,2,4-oxadiazol-3-yl)phenyl)ethyl)pyrazin-2-amine]  1.3 µM
14. Cc1nc(-c2ccc(CNC(=O)Nc3ccccc3)cc2)no1 [Compound 56, 3-[[4-(5-methyl-1,2,4-oxadiazol-3-yl)phenyl]methyl]-1-phenylurea]  1.2 µM
15. FCc1nc(-c2ccc(CNc3cnccn3)cc2)no1 [Compound 25, N-(4-(5-(fluoromethyl)-1,2,4-oxadiazol-3-yl)benzyl)pyrazin-2-amine]  1.1 µM
16. Cc1nc(-c2ccc(C(C)Nc3cnccn3)cc2)no1 (stereo not drawn) [Compound 26, N-(1-(4-(5-methyl-1,2,4-oxadiazol-3-yl)phenyl)ethyl)pyrazin-2-amine]  1.1 µM
17. Cc1nc(-c2ccc(CNc3cc(C#N)ccn3)cc2)no1 [Compound 15, 2-((4-(5-methyl-1,2,4-oxadiazol-3-yl)benzyl)amino) isonicotinonitrile]  1.0 µM
18. FC(F)(F)c1nc(-c2ccc(CNc3cnccn3)cc2)no1 [Compound 70, N-(4-(5-(trifluoromethyl)-1,2,4-oxadiazol-3-yl)benzyl)pyrazin-2-amine]  0.8 µM
19. Cc1nc(-c2ccc(CNc3cnccn3)cc2)no1 [Compound 2, N-(4-(5-methyl-1,2,4-oxadiazol-3-yl)benzyl)pyrazin-2-amine]  0.8 µM
20. Cc1nc(-c2ccc(CNc3cnccn3)cc2F)no1 [Compound 41, N-(3-fluoro-4-(5-methyl-1,2,4-oxadiazol-3-yl)benzyl)pyrazin-2-amine]  0.7 µM
21. Cc1nc(-c2ccc(CNc3cnccn3)c(F)c2)no1 [Compound 46, N-(2-fluoro-4-(5-methyl-1,2,4-oxadiazol-3-yl)benzyl)pyrazin-2-amine]  0.4 µM
22. c1cnc(NCc2ccc(-c3noc(C4CC4)n3)cc2)cn1 [Compound 22, N-(4-(5-cyclopropyl-1,2,4-oxadiazol-3-yl)benzyl)pyrazin-2-amine]  0.4 µM
23. C[C@@H](Nc1cnccn1)c1ccc(-c2noc(-c3ccsc3)n2)cc1 [Compound 43, (R)-N-(1-(4-(5-(thiophen-3-yl)-1,2,4-oxadiazol-3-yl)phenyl)ethyl)pyrazin-2-amine]  0.4 µM
24. COc1cnc(NCc2ccc(-c3cc(C)on3)cc2)cn1 [Compound 67, 5-methoxy-N-(4-(5-methylisoxazol-3-yl)benzyl)pyrazin-2-amine]  0.4 µM
25. c1cnc(NCc2ccc(-c3noc(C4CCC4)n3)cc2)cn1 [Compound 23, N-(4-(5-cyclobutyl-1,2,4-oxadiazol-3-yl)benzyl)pyrazin-2-amine]  0.3 µM
26. Cc1nc(-c2ccc(CNc3cc(Cl)ncn3)cc2)no1 [Compound 9, 6-chloro-N-(4-(5-methyl-1,2,4-oxadiazol-3-yl)benzyl)pyrimidin-4-amine]  0.3 µM
27. COc1cc(NCc2ccc(-c3cc(C)on3)cc2)ncn1 [Compound 66, 6-methoxy-N-(4-(5-methylisoxazol-3-yl)benzyl)pyrimidin-4-amine]  0.3 µM
28. C[C@@H](Nc1cnccn1)c1ccc(-c2noc(-c3ccco3)n2)cc1 [Compound 39, (R)-N-(1-(4-(5-(furan-2-yl)-1,2,4-oxadiazol-3-yl)phenyl)ethyl)pyrazin-2-amine]  0.2 µM

First: Cc1nc(-c2ccc(CNc3cnccn3)c(F)c2)no1 [Compound 46, N-(2-fluoro-4-(5-methyl-1,2,4-oxadiazol-3-yl)benzyl)pyrazin-2-amine]
Second: Cc1nc(-c2ccc(CNc3cnccn3)cc2F)no1 [Compound 41, N-(3-fluoro-4-(5-methyl-1,2,4-oxadiazol-3-yl)benzyl)pyrazin-2-amine]
The IC50 of the first is 1.8-fold lower: 2.2 µM for the first, 3.9 µM for the second.

c1cnc(NCc2ccc(-c3noc(C4CC4)n3)cc2)cn1 [Compound 22, N-(4-(5-cyclopropyl-1,2,4-oxadiazol-3-yl)benzyl)pyrazin-2-amine] and c1cnc(NCc2ccc(-c3noc(C4CCC4)n3)cc2)cn1 [Compound 23, N-(4-(5-cyclobutyl-1,2,4-oxadiazol-3-yl)benzyl)pyrazin-2-amine] are within 1.5-fold of each other in IC50: 1.8 µM for the first, 1.4 µM for the second.

First: Cc1nc(-c2ccc(C(C)Nc3cc(Cl)ncn3)cc2)no1 (stereo not drawn) [Compound 21, 6-chloro-N-(1-(4-(5-methyl-1,2,4-oxadiazol-3-yl)phenyl)ethyl)pyrimidin-4-amine]
Second: Cc1nc(-c2ccc(CNc3cc(Cl)ncn3)cc2)no1 [Compound 9, 6-chloro-N-(4-(5-methyl-1,2,4-oxadiazol-3-yl)benzyl)pyrimidin-4-amine]
The IC50 of the first is 11-fold higher: 12.8 µM for the first, 1.2 µM for the second. The second is the more potent here.

First: C[C@@H](Nc1cnccn1)c1ccc(-c2noc(-c3ccsc3)n2)cc1 [Compound 43, (R)-N-(1-(4-(5-(thiophen-3-yl)-1,2,4-oxadiazol-3-yl)phenyl)ethyl)pyrazin-2-amine]
Second: C[C@@H](Nc1cnccn1)c1ccc(-c2noc(-c3ccccc3)n2)cc1 [Compound 37, (R)-N-(1-(4-(5-phenyl-1,2,4-oxadiazol-3-yl)phenyl)ethyl)pyrazin-2-amine]
The IC50 of the first is 3.3-fold lower: 1.7 µM for the first, 5.6 µM for the second.

Going from Cc1nc(-c2ccc(CNC(=O)c3ccnc(N)c3)cc2)no1 [Compound 60, 2-amino-N-[[4-(5-methyl-1,2,4-oxadiazol-3-yl)phenyl]methyl]pyridine-4-carboxamide] to Cc1nc(-c2ccc(CNc3cc(C#N)ccn3)cc2)no1 [Compound 15, 2-((4-(5-methyl-1,2,4-oxadiazol-3-yl)benzyl)amino) isonicotinonitrile], the IC50 falls from 30.8 µM to 5.5 µM (5.6-fold). The second is the more potent here.

First: Cc1cc(-c2ccc(CNc3cc(=O)cc[nH]3)cc2)no1 [Compound 68, 2-([[4-(5-methyl-1,2-oxazol-3-yl)phenyl]methyl]amino)-1,4-dihydropyridin-4-one]
Second: Cc1cc(-c2ccc(CNc3cccc(=O)[nH]3)cc2)no1 [Compound 61, 6-([[4-(5-methyl-1,2-oxazol-3-yl)phenyl]methyl]amino)-1,2-dihydropyridin-2-one]
The IC50 of the first is higher: greater than 39.2 µM for the first, 10.2 µM for the second. The second is the more potent here.

FC(F)(F)c1nc(-c2ccc(CNc3cnccn3)cc2)no1 [Compound 70, N-(4-(5-(trifluoromethyl)-1,2,4-oxadiazol-3-yl)benzyl)pyrazin-2-amine] and FCc1nc(-c2ccc(CNc3cnccn3)cc2)no1 [Compound 25, N-(4-(5-(fluoromethyl)-1,2,4-oxadiazol-3-yl)benzyl)pyrazin-2-amine] are within 1.5-fold of each other in IC50: 4.1 µM for the first, 4.5 µM for the second.

First: Cc1cnn(-c2ccc(CNc3cnccn3)cc2)c1 [Compound 29, N-(4-(4-methyl-1H-pyrazol-1-yl)benzyl)pyrazin-2-amine]
Second: Cc1cnc(-c2ccc(CNc3cnccn3)cc2)s1 [Compound 48, N-[[4-(5-methyl-1,3-thiazol-2-yl)phenyl]methyl]pyrazin-2-amine]
The IC50 of the first is 2-fold higher: 38.9 µM for the first, 19 µM for the second. The second is the more potent here.

COc1cnc(NCc2ccc(-c3cc(C)on3)cc2)cn1 [Compound 67, 5-methoxy-N-(4-(5-methylisoxazol-3-yl)benzyl)pyrazin-2-amine] and COc1cc(NCc2ccc(-c3cc(C)on3)cc2)ncn1 [Compound 66, 6-methoxy-N-(4-(5-methylisoxazol-3-yl)benzyl)pyrimidin-4-amine] are within 1.5-fold of each other in IC50: 2.2 µM for the first, 1.7 µM for the second.

Going from Cc1cc(-c2ccc(CNc3cc[nH]n3)cc2)no1 [Compound 62, N-(4-(5-methylisoxazol-3-yl)benzyl)-1H-pyrazol-3-amine] to Cc1cc(-c2ccc(CNc3ccn(C)n3)cc2)no1 [Compound 64, 1-methyl-N-(4-(5-methylisoxazol-3-yl)benzyl)-1H-pyrazol-3-amine], the IC50 rises from 23 µM to greater than 39.2 µM. The first is the more potent here.

Cc1nc(-c2ccc(CNc3cnccn3)cc2)no1 [Compound 2, N-(4-(5-methyl-1,2,4-oxadiazol-3-yl)benzyl)pyrazin-2-amine] and Cc1nc(-c2ccc(C(C)Nc3cnccn3)cc2)no1 (stereo not drawn) [Compound 26, N-(1-(4-(5-methyl-1,2,4-oxadiazol-3-yl)phenyl)ethyl)pyrazin-2-amine] are within 1.5-fold of each other in IC50: 4.3 µM for the first, 5.6 µM for the second.

Going from C[C@@H](Nc1cnccn1)c1ccc(-c2noc(-c3ccco3)n2)cc1 [Compound 39, (R)-N-(1-(4-(5-(furan-2-yl)-1,2,4-oxadiazol-3-yl)phenyl)ethyl)pyrazin-2-amine] to C[C@@H](Nc1cnccn1)c1ccc(-c2noc(C(C)(C)C)n2)cc1 [Compound 36, (R)-N-(1-(4-(5-(tert-butyl)-1,2,4-oxadiazol-3-yl)phenyl)ethyl)pyrazin-2-amine], the IC50 rises from 0.9 µM to 36.5 µM (41-fold). The first is the more potent here.

Going from COc1cccc(NCc2ccc(-c3cc(C)on3)cc2)n1 [Compound 71, 6-methoxy-N-[[4-(5-methyl-1,2-oxazol-3-yl)phenyl]methyl]pyridin-2-amine] to Cc1nc(-c2ccc(CNc3ccc(Cl)cn3)cc2)no1 [Compound 20, 5-chloro-N-(4-(5-methyl-1,2,4-oxadiazol-3-yl)benzyl)pyridin-2-amine], the IC50 falls from greater than 39.2 µM to 5.2 µM. The second is the more potent here.

First: Cc1nc(-c2ccc(CNC(=O)Nc3ccccc3)cc2)no1 [Compound 56, 3-[[4-(5-methyl-1,2,4-oxadiazol-3-yl)phenyl]methyl]-1-phenylurea]
Second: Cc1nc(-c2ccc(CNC(=O)OCc3ccccc3)cc2)no1 [Compound 57, benzyl (4-(5-methyl-1,2,4-oxadiazol-3-yl)benzyl)carbamate]
The IC50 of the first is 4.1-fold lower: 4.7 µM for the first, 19.3 µM for the second. The first is the more potent here.

Compared with Cc1cc(NCc2ccc(-c3noc(C)n3)cc2)ncn1 [Compound 4, 6-methyl-N-(4-(5-methyl-1,2,4-oxadiazol-3-yl)benzyl)pyrimidin-4-amine], CCc1cc(NCc2ccc(-c3noc(C)n3)cc2)ncn1 [Compound 8, 6-ethyl-N-(4-(5-methyl-1,2,4-oxadiazol-3-yl)benzyl)pyrimidin-4-amine] is 2.5-fold higher in IC50: 6.6 µM for the first, 16.6 µM for the second. The first is the more potent here.

In the case of Cc1cc(-c2ccc(CNc3cc(=O)cc[nH]3)cc2)no1 [Compound 68, 2-([[4-(5-methyl-1,2-oxazol-3-yl)phenyl]methyl]amino)-1,4-dihydropyridin-4-one], the “CDMF75 IC15” value is reported as greater than 39.2 µM.
COc1cccc(NCc2ccc(-c3cc(C)on3)cc2)n1 [Compound 71, 6-methoxy-N-[[4-(5-methyl-1,2-oxazol-3-yl)phenyl]methyl]pyridin-2-amine] was tested, and the “CDMF75 IC15” value was greater than 39.2 µM.
